Earlier results as cited in patent US9199026B2, “Modular extracorporeal systems and methods for treating blood-borne diseases” (SOMERSET GROUP ENTERPRISES, INC., priority 2011, dated 2015).
Like-named read-outs stand apart in the source and are kept apart here.

What was measured:
[1] = not given; remark: listed apart in the source
[2] = not given; remark: listed apart in the source
bacteria = conditions: for Spectrum: first line of the cell pair 'Spectrum, activity'; for activity (bactericidal / static): second line of the cell pair 'Spectrum

Molecule: Nc1nc(NC2CC2)c2ncn([C@H]3C=C[C@@H](CO)C3)c2n1 [Abacavir]
- Percent removed By hemodialysis (in vivo): 24%

Molecule: CC1(C)S[C@@H]2[C@H](/N=C/N3CCCCCC3)C(=O)N2[C@H]1C(=O)O [Amdinocillin]
- Percent removed By hemodialysis (in vivo): 32-70%
- Percent removed By CAPD ([1]; in vivo): Negligible (<4%)

Molecule: NCC[C@H](O)C(=O)N[C@@H]1C[C@H](N)[C@@H](O[C@H]2O[C@H](CN)[C@@H](O)[C@H](O)[C@H]2O)[C@H](O)[C@H]1O[C@H]1O[C@H](CO)[C@@H](O)[C@H](N)[C@H]1O [Amikacin]
- pKa ([2]; no group stated): 12.7
- Spectrum (bacteria): Gram negative,
- activity (bactericidal / static) (bacteria): bactericidal

Molecule: CC1(C)S[C@@H]2[C@H](NC(=O)[C@H](N)c3ccc(O)cc3)C(=O)N2[C@H]1C(=O)O [Amoxicillin]
- Percent removed By hemodialysis (in vivo): 30%

Molecule: CC[C@H]1OC(=O)[C@H](C)[C@@H](O[C@H]2C[C@@](C)(OC)[C@@H](O)[C@H](C)O2)[C@H](C)[C@@H](O[C@@H]2O[C@H](C)C[C@H](N(C)C)[C@H]2O)[C@](C)(O)C[C@@H](C)CN(C)[C@H](C)[C@@H](O)[C@]1(C)O [Azithromycin]
- pKa ([2]; no group stated): 8.1

Molecule: C[C@@H](O)[C@H]1C(=O)N2C(C(=O)[O-])=C(SC3Cn4cnc[n+]4C3)[C@H](C)[C@H]12 (stereo partly shown) [Biapenem]
- Percent removed By hemodialysis (in vivo): 90%

Molecule: CC1(C)S[C@@H]2[C@H](NC(=O)C(C(=O)O)c3ccccc3)C(=O)N2[C@H]1C(=O)O (stereo partly shown) [Carbenicillin]
- Percent removed By hemodialysis (in vivo): 50%

Molecule: N[C@@H](C(=O)N[C@@H]1C(=O)N2C(C(=O)O)=C(Cl)CS[C@H]12)c1ccccc1 [Cefaclor]
- Percent removed By hemodialysis (in vivo): 33%

Molecule: Cc1nnc(SCC2=C(C(=O)O)N3C(=O)[C@@H](NC(=O)Cn4cnnn4)[C@H]3SC2)s1 [Cefazolin]
- Percent removed By hemodialysis (hemodialysis): 50%
- Percent removed By CAPD ([1]; CAPD): 20%

Molecule: CO/N=C(\C(=O)N[C@@H]1C(=O)N2C(C(=O)[O-])=C(C[N+]3(C)CCCC3)CS[C@H]12)c1csc(N)n1 [Cefipime]
- Percent removed By hemodialysis (hemodialysis): 40-70%
- Percent removed By CAPD ([1]; CAPD): 26%

Molecule: CO/N=C(\C(=O)N[C@@H]1C(=O)N2C(C(=O)O)=C(CSc3nnnn3C)CS[C@H]12)c1csc(N)n1 [Cefmenoxime]
- Percent removed By hemodialysis (in vivo): 16-51%
- Percent removed By CAPD ([1]; in vivo): Negligible (<10%)

Molecule: CO[C@@]1(NC(=O)CSCC#N)C(=O)N2C(C(=O)O)=C(CSc3nnnn3C)CS[C@@H]21 [Cefmetazole]
- Percent removed By hemodialysis (in vivo): 60%

Molecule: CO/N=C(\C(=O)N[C@@H]1C(=O)N2C(C(=O)O)=C(CSc3nc(C)c(CC(=O)O)s3)CS[C@H]12)c1csc(N)n1 [Cefodizime]
- Percent removed By hemodialysis (in vivo): 50%
- Percent removed By CAPD ([1]; in vivo): Negligible (15%)

Molecule: NCc1ccccc1CC(=O)N[C@@H]1C(=O)N2C(C(=O)O)=C(CSc3nnnn3CC(=O)O)CS[C@H]12 [Ceforanide]
- Percent removed By hemodialysis (in vivo): 20-50%
- Percent removed By CAPD ([1]; in vivo): Negligible

Molecule: CO[C@@]1(NC(=O)Cc2cccs2)C(=O)N2C(C(=O)O)=C(COC(N)=O)CS[C@@H]21 [Cefoxitin]
- Percent removed By hemodialysis (in vivo): 50%
- Percent removed By CAPD ([1]; in vivo): Negligible

Molecule: CO/N=C(\C(=O)N[C@@H]1C(=O)N2C(C(=O)[O-])=C(C[n+]3cccc4c3CCC4)CS[C@H]12)c1csc(N)n1 [Cefpirome]
- Percent removed By hemodialysis (in vivo): 32-48%
- Percent removed By CAPD ([1]; in vivo): Negligible (12%)

Molecule: COCC1=C(C(=O)O)N2C(=O)[C@@H](NC(=O)/C(=N\OC)c3csc(N)n3)[C@H]2SC1 [Cefpodoxime]
- Percent removed By hemodialysis (in vivo): 50%

Molecule: CC=CC1=C(C(=O)O)N2C(=O)[C@@H](NC(=O)[C@H](N)c3ccc(O)cc3)[C@H]2SC1 [Cefprozil]
- Percent removed By hemodialysis (in vivo): 55%

Molecule: COC1=C(C(=O)O)N2C(=O)[C@@H](NC(=O)[C@H](N)C3=CCC=CC3)[C@H]2SC1 [Cefroxadine]
- Percent removed By hemodialysis (in vivo): 50%

Molecule: NC(=O)c1cc[n+](CC2=C(C(=O)O)N3C(=O)[C@@H](NC(=O)[C@@H](c4ccccc4)S(=O)(=O)[O-])[C@H]3SC2)cc1 [Cefsulodin]
- Percent removed By hemodialysis (hemodialysis): 60%

Molecule: CC(C)(O/N=C(\C(=O)N[C@@H]1C(=O)N2C(C(=O)[O-])=C(C[n+]3ccccc3)CS[C@H]12)c1csc(N)n1)C(=O)O [Ceftazidime]
- Percent removed By hemodialysis (in vivo): 50%
- Percent removed By CAPD ([1]; in vivo): Negligible

Molecule: Nc1nc(/C(=C/CC(=O)O)C(=O)N[C@@H]2C(=O)N3C(C(=O)O)=CCS[C@H]23)cs1 [Ceftibuten]
- Percent removed By hemodialysis (in vivo): 39%

Molecule: CO/N=C(\C(=O)N[C@@H]1C(=O)N2C(C(=O)O)=CCS[C@H]12)c1csc(N)n1 [Ceftizoxime]
- Percent removed By hemodialysis (in vivo): 50%
- Percent removed By CAPD ([1]; in vivo): Negligible (16%)

Molecule: CO/N=C(\C(=O)N[C@@H]1C(=O)N2C(C(=O)O)=C(CSc3nc(=O)c(=O)[nH]n3C)CS[C@H]12)c1csc(N)n1 [Ceftriaxone sodium]
- pKa ([2]; (NH2)): 3.2

Molecule: CO/N=C(\C(=O)N[C@@H]1C(=O)N2C(C(=O)O)=C(CSc3nc(=O)c(=O)[nH]n3C)CS[C@H]12)c1csc(N)n1 [Ceftriaxone]
- Percent removed By hemodialysis (in vivo): 40%
- Percent removed By CAPD ([1]; in vivo): Negligible (4.5%)

Molecule: CO/N=C(\C(=O)N[C@@H]1C(=O)N2C(C(=O)O)=C(COC(N)=O)CS[C@H]12)c1ccco1 [Cefuroxime sodium]
- pKa ([2]; no group stated): 2.5

Molecule: CO/N=C(\C(=O)N[C@@H]1C(=O)N2C(C(=O)O)=C(COC(N)=O)CS[C@H]12)c1ccco1 [Cefuroxime]
- Percent removed By CAPD ([1]; in vivo): 20%

Molecule: CC(=O)OCC1=C(C(=O)O)N2C(=O)[C@@H](NC(=O)CC#N)[C@H]2SC1 [Cephacetrile]
- Percent removed By hemodialysis (in vivo): 50%

Molecule: CC1=C(C(=O)O)N2C(=O)[C@@H](NC(=O)[C@H](N)c3ccccc3)[C@H]2SC1 [Cephalexin]
- Percent removed By hemodialysis (in vivo): 50-75%
- Percent removed By CAPD ([1]; in vivo): 30%

Molecule: CC(=O)OCC1=C(C(=O)O)N2C(=O)[C@@H](NC(=O)Cc3cccs3)[C@H]2SC1 [Cephalothin]
- Percent removed By hemodialysis (in vivo): 50%

Molecule: CC(=O)OCC1=C(C(=O)O)N2C(=O)[C@@H](NC(=O)CSc3ccncc3)[C@H]2SC1 [Cephapirin]
- Percent removed By hemodialysis (hemodialysis): 20%

Molecule: Nc1ccn(C[C@@H](CO)OCP(=O)(O)O)c(=O)n1 [Cidofovir]
- Percent removed By hemodialysis (hemodialysis): 50%
- Percent removed By CAPD ([1]; CAPD): Negligible

Molecule: O=C(O)c1cn(C2CC2)c2cc(N3CCNCC3)c(F)cc2c1=O [Ciprofloxalin]
- activity (bactericidal / static) (bacteria): bactericidal

Molecule: CCCCCCCCCC(=O)N[C@@H](Cc1c[nH]c2ccccc12)C(=O)N[C@H](CC(N)=O)C(=O)N[C@@H](CC(=O)O)C(=O)N[C@@H]1C(=O)NCC(=O)N[C@@H](CCCN)C(=O)N[C@@H](CC(=O)O)C(=O)N[C@H](C)C(=O)N[C@@H](CC(=O)O)C(=O)NCC(=O)N[C@H](CO)C(=O)N[C@@H]([C@H](C)CC(=O)O)C(=O)N[C@@H](CC(=O)c2ccccc2N)C(=O)O[C@@H]1C [Daptomycin]
- Spectrum (bacteria): Gram positive,
- activity (bactericidal / static) (bacteria): bactericidal

Molecule: CN(C)CCn1nnnc1SCC1=C(C(=O)O)N2C(=O)[C@@H](NC(=O)Cc3csc(N)n3)[C@H]2SC1 [Defotiam]
- Percent removed By hemodialysis (in vivo): 30-40%

Molecule: C[C@@H](O)[C@H]1C(=O)N2C(C(=O)O)=C(SCCN=CN)C[C@H]12 [Imipenem]
- Percent removed By hemodialysis (in vivo): 80-90%
- Percent removed By CAPD ([1]; in vivo): Negligible

Molecule: NNC(=O)c1ccncc1 [Isoniazid]
- Percent removed By hemodialysis (in vivo): 75%

Molecule: CC(=O)NC[C@H]1CN(c2ccc(N3CCOCC3)c(F)c2)C(=O)O1 [Linezolid]
- Percent removed By hemodialysis (hemodialysis): 33%

Molecule: C[C@@H](O)[C@H]1C(=O)N2C(C(=O)O)=C(S[C@@H]3CN[C@H](C(=O)N(C)C)C3)[C@H](C)[C@H]12 [Meropenem]
- Percent removed By hemodialysis (in vivo): 50-70%

Molecule: CC1(C)S[C@@H]2[C@H](NC(=O)[C@H](NC(=O)N3CCN(S(C)(=O)=O)C3=O)c3ccccc3)C(=O)N2[C@H]1C(=O)O [Mezlocillin]
- Percent removed By hemodialysis (in vivo): 20-25%
- Percent removed By CAPD ([1]; in vivo): 24%

Molecule: CO[C@@]1(NC(=O)C(C(=O)O)c2ccc(O)cc2)C(=O)N2C(C(=O)O)=C(CSc3nnnn3C)CO[C@@H]21 (stereo partly shown) [Moxalactam]
- Percent removed By hemodialysis (in vivo): 30-50%
- Percent removed By CAPD ([1]; in vivo): Negligible (15-20%)

Molecule: Nc1ccc(C(=O)O)c(O)c1 [Para-aminosalicylic Acid]
- Percent removed By hemodialysis (hemodialysis): 50%

Molecule: CC1(C)S[C@@H]2[C@H](NC(=O)Cc3ccccc3)C(=O)N2[C@H]1C(=O)O [Penicillin G]
- pKa ([2]; no group stated): 2.8

Molecule: CN[C@@H]1[C@H](O)[C@H](NC)[C@H]2O[C@@]3(O)C(=O)C[C@@H](C)O[C@H]3O[C@@H]2[C@H]1O [Spectinomycin]
- Percent removed By hemodialysis (in vivo): 50%

Molecule: CO[C@@]1(NC(=O)C(C(=O)O)c2ccsc2)C(=O)N2[C@@H](C(=O)O)C(C)(C)S[C@@H]21 (stereo partly shown) [Temocillin]
- Percent removed By hemodialysis (hemodialysis): 50%
- Percent removed By CAPD ([1]; CAPD): Negligible (6%)

Molecule: CN(C)c1cc(NC(=O)CNC(C)(C)C)c(O)c2c1C[C@H]1C[C@H]3[C@H](N(C)C)C(O)=C(C(N)=O)C(=O)[C@@]3(O)C(O)=C1C2=O [Tigecycline]
- pKa ([2]; no group stated): 4.4
- Spectrum (bacteria): Broad,
- activity (bactericidal / static) (bacteria): static

Molecule: NC[C@H]1O[C@H](O[C@H]2[C@H](O)[C@@H](O[C@H]3O[C@H](CO)[C@@H](O)[C@H](N)[C@H]3O)[C@H](N)C[C@@H]2N)[C@H](N)C[C@@H]1O [Tobramycin]
- Spectrum (bacteria): Gram negative,
- activity (bactericidal / static) (bacteria): bactericidal

Molecule: COc1cc(Cc2cnc(N)nc2N)cc(OC)c1OC [Trimethoprim]
- Percent removed By hemodialysis (in vivo): 50%
- Percent removed By CAPD ([1]; in vivo): Negligible (7%)

Molecule: N[C@@H]1[C@H]2CN(c3nc4c(cc3F)c(=O)c(C(=O)O)cn4-c3ccc(F)cc3F)C[C@@H]12 [Trovafloxacin]
- Spectrum (bacteria): Broad,
- activity (bactericidal / static) (bacteria): bactericidal

Molecule: Colistin
- pKa ([2]; no group stated): 12.1
- Spectrum (bacteria): Gram negative,
- activity (bactericidal / static) (bacteria): bactericidal

Molecule: Gentamycin
- Spectrum (bacteria): Gram negative,
- activity (bactericidal / static) (bacteria): bactericidal

Molecule: Penicillin
- Percent removed By hemodialysis (hemodialysis): 50%

Molecule: Polymixin B
- Spectrum (bacteria): G−,
- activity (bactericidal / static) (bacteria): bactericidal
